Laboratory results taken from patent publication US10954232B2, “Pyrazole derivative as ALK5 inhibitor and uses thereof” (HANMI PHARMACEUTICAL CO., LTD., priority 2016, dated 2021).

Molecular target: T1, ALK5 kinase (Homo sapiens, UniProt P36897)
T1 construct: GST; purchased Thermo Fisher Scientific Solutions
T1 sequence (P36897 34-503): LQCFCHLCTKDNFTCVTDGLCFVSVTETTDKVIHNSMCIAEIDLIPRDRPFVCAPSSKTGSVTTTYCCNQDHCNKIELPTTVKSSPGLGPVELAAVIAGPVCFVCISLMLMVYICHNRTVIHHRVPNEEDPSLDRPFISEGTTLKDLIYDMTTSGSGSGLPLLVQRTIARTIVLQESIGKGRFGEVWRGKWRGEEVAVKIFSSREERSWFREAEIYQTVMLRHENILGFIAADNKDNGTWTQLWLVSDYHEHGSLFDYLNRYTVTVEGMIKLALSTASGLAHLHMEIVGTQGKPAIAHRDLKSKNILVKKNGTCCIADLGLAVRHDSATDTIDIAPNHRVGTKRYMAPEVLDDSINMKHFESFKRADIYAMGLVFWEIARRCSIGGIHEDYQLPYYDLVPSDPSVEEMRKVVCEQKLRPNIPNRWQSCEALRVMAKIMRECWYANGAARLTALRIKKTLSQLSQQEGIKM
Assay: Activity inhibition test on ALK5 enzyme (LanthaScreen Eu binding kinase assay)
Details: kinase tracer 178, 60 minutes at room temperature
Description: For each of the compounds obtained in Examples 1 to 227, inhibitory activity against ALK5 kinase was measured.
For this, a LanthaScreen Eu binding kinase assay method was used, and ALK5 kinase, a kinase buffer, a kinase tracer 178, and a LanthaScreen Eu-GST binding antibody were all purchased from Thermo Fisher Scientific Solutions. Each of the compounds was made into a 10 mM DMSO solution, and diluted by 1/10 to a concentration of 1 μM to 0.0001 μM with an aqueous solution containing 4% DMSO. The test was performed in 384 well plates (well polystyrene low volume round-bottomed plates). First, 5 μL of the diluted compound solution was added, then 5 μL of the kinase/antibody mixture solution was introduced thereto, and 5 μL of the tracer was introduced thereto. Herein, these were added to each well so that the final kinase concentration became 5 nM, the final Eu-GST binding antibody concentration 2 nM, and the kinase tracer 178 concentration 10 nM, and the result was reacted in a stirrer for 60 minutes at room temperature. Then a fluorescence value was measured using a fluorescence meter (molecular device) ([…], 665 nm emission filter). Herein, as for the degree of compound activity to inhibit the kinase reaction, a phosphorylate rate was calculated from 0% to 100% with respect to a control group according to the protocol included in the kit, and a 50% inhibitory concentration (IC50) value was calculated by obtaining the x-axis concentration in the region where 50% activity was inhibited.

Molecule | IC50 [nM]
5-([1,2,4]triazolo[1,5-α]pyridin-6-yl)-N-(1-cyclopropyl sulfonyl)-1H-pyrazol-4-yl)-1-(6-methylpyridin-2-yl)-1H-pyrazole-3-carboxyamide [Example 163] | 4.6
5-([1,2,4]triazolo[1,5-α]pyridin-6-yl)-N-(4-((1,1-dioxidotetrahydrothiophen-3-yl)amino)phenyl)-1-(6-methylpyridin-2-yl)-1H-pyrazole-3-carboxyamide [Example 109] | 9.7
COc1ccc(NC(=O)c2cc(-c3ccc4ncsc4c3)n(-c3cccc(C)n3)n2)cc1 [Example 1, 5-(benzo[d]thiazol-6-yl)-N-(4-methoxyphenyl)-1-(6-methylpyridin-2-yl)-1H-pyrazole-3-carboxyamide] | 5
CCOc1ccc(NC(=O)c2cc(-c3ccc4ncsc4c3)n(-c3cccc(C)n3)n2)cc1 [Example 2, 5-(benzo[d]thiazol-6-yl)-N-(4-ethoxyphenyl)-1-(6-methylpyridin-2-yl)-1H-pyrazole-3-carboxyamide] | 4.7
Cc1cccc(-n2nc(C(=O)Nc3ccc(OCC4CC4)cc3)cc2-c2ccc3ncsc3c2)n1 [Example 3, 5-(benzo[d]thiazol-6-yl)-N-(4-(cyclopropylmethoxy)phenyl)-1-(6-methylpyridin-2-yl)-1H-pyrazole-3-carboxyamide] | 12
COCCOc1ccc(NC(=O)c2cc(-c3ccc4ncsc4c3)n(-c3cccc(C)n3)n2)cc1 [Example 4, 5-(benzo[d]thiazol-6-yl)-N-(4-(2-methoxyethoxy)phenyl)-1-(6-methylpyridin-2-yl)-1H-pyrazole-3-carboxyamide] | 4.4
Cc1cccc(-n2nc(C(=O)Nc3ccc(OC(F)(F)F)cc3)cc2-c2ccc3ncsc3c2)n1 [Example 5, 5-(benzo[d]thiazol-6-yl)-1-(6-methylpyridin-2-yl)-N-(4-(trifluoromethoxy)phenyl)-1H-pyrazole-3-carboxyamide] | 10 to 100
Cc1cccc(-n2nc(C(=O)Nc3ccc(OCc4ccccc4)cc3)cc2-c2ccc3ncsc3c2)n1 [Example 6, 5-(benzo[d]thiazol-6-yl)-N-(4-(benzyloxy)phenyl)-1-(6-methylpyridin-2-yl)-1H-pyrazole-3-carboxyamide] | 11
Cc1cccc(-n2nc(C(=O)Nc3ccc4c(c3)OCO4)cc2-c2ccc3ncsc3c2)n1 [Example 7, N-(benzo[d][1,3]dioxol-5-yl)-5-(benzo[d]thiazol-6-yl)-1-(6-methylpyridin-2-yl)-1-H-pyrazole-3-carboxyamide] | < 10
COc1cc(NC(=O)c2cc(-c3ccc4ncsc4c3)n(-c3cccc(C)n3)n2)ccc1F [Example 8, 5-(benzo[d]thiazol-6-yl)-N-(4-fluoro-3-methoxyphenyl)-1-(6-methylpyridin-2-yl)-1H-pyrazole-3-carboxyamide] | 4.7
COc1ccc(NC(=O)c2cc(-c3ccc4ncsc4c3)n(-c3cccc(C)n3)n2)c(F)c1 [Example 9, 5-(benzo[d]thiazol-6-yl)-N-(2-fluoro-4-methoxyphenyl)-1-(6-methylpyridin-2-yl)-1H-pyrazole-3-carboxyamide] | 19
COc1ccc(NC(=O)c2cc(-c3ccc4ncsc4c3)n(-c3cccc(C)n3)n2)cc1F [Example 10, 5-(benzo[d]thiazol-6-yl)-N-(3-fluoro-4-methoxyphenyl)-1-(6-methylpyridin-2-yl)-1H-pyrazole-3-carboxyamide] | 10
Cc1cccc(-n2nc(C(=O)Nc3cccc(N)c3)cc2-c2ccc3ncsc3c2)n1 [Example 11, 5-(benzo[d]thiazol-6-yl)-N-(3-aminophenyl)-1-(6-methylpyridin-2-yl)-1H-pyrazole-3-carboxyamide] | 2.2
CNc1cccc(NC(=O)c2cc(-c3ccc4ncsc4c3)n(-c3cccc(C)n3)n2)c1 [Example 12, 5-(benzo[d]thiazol-6-yl)-N-(3-(methylamino)phenyl)-1-(6-methylpyridin-2-yl)-1H-pyrazole-3-carboxyamide] | 6.1
Cc1cccc(-n2nc(C(=O)Nc3ccc(N(C)C)cc3)cc2-c2ccc3ncsc3c2)n1 [Example 13, 5-(benzo[d]thiazol-6-yl)-N-(4-(dimethylamino)phenyl)-1-(6-methylpyridin-2-yl)-1H-pyrazole-3-carboxyamide] | 10 to 100
Cc1cccc(-n2nc(C(=O)Nc3ccc([N+](=O)[O-])cc3)cc2-c2ccc3ncsc3c2)n1 [Example 14, 5-(benzo[d]thiazol-6-yl)-1-(6-methylpyridin-2-yl)-N-(4-nitrophenyl)-1H-pyrazole-3-carboxyamide] | 17
Cc1cccc(-n2nc(C(=O)Nc3ccc(N(C)CCN(C)C)cc3)cc2-c2ccc3ncsc3c2)n1 [Example 15, 5-(benzo[d]thiazol-6-yl)-N-(4-((2-(dimethylamino)ethyl)(methyl)amino)phenyl)-1-(6-methylpyridin-2-yl)-1H-pyrazole-3-carboxyamide] | 6.4
Cc1cccc(-n2nc(C(=O)Nc3ccc(N4CC[C@H](N(C)C)C4)cc3)cc2-c2ccc3ncsc3c2)n1 [Example 16, 5-(benzo[d]thiazol-6-yl)-N-(4-(3-(dimethylamino)pyrrolidin-1-yl)phenyl)-1-(6-methylpyridin-2-yl)-1H-pyrazole-3-carboxyamide] | 2.3
Cc1cccc(-n2nc(C(=O)Nc3ccc(N4CC5CCCNC5C4)c(Cl)c3)cc2-c2ccc3ncsc3c2)n1 (stereo not drawn) [Example 17, 5-(benzo[d]thiazol-6-yl)-N-(3-chloro-4-(octahydro-6H-pyrrolo[3,4-b]pyridin-6-yl)phenyl)-1-(6-methylpyridin-2-yl)-1H-pyrazole-3-carboxyamide] | 14
Cc1cccc(-n2nc(C(=O)Nc3ccccc3)cc2-c2ccc3ncsc3c2)n1 [Example 18, 5-(benzo[d]thiazol-6-yl)-1-(6-methylpyridin-2-yl)-N-phenyl-1H-pyrazole-3-carboxyamide] | 10 to 100
Cc1cccc(NC(=O)c2cc(-c3ccc4ncsc4c3)n(-c3cccc(C)n3)n2)c1 [Example 19, 5-(benzo[d]thiazol-6-yl)-N-(3-tolyl)-1-(6-methylpyridin-2-yl)-1H-pyrazole-3-carboxyamide] | 10 to 100
C=Cc1cccc(NC(=O)c2cc(-c3ccc4ncsc4c3)n(-c3cccc(C)n3)n2)c1 [Example 20, 5-(benzo[d]thiazol-6-yl)-1-(6-methylpyridin-2-yl)-N-(3-vinylphenyl)-1H-pyrazole-3-carboxyamide] | 10 to 100
Cc1cccc(-n2nc(C(=O)Nc3cccc(C(F)(F)F)c3)cc2-c2ccc3ncsc3c2)n1 [Example 21, 5-(benzo[d]thiazol-6-yl)-N-(3-(trifluoromethyl)phenyl)-1-(6-methylpyridin-2-yl)-1H-pyrazole-3-carboxyamide] | ~100
Cc1cccc(-n2nc(C(=O)Nc3cccc(C#N)c3)cc2-c2ccc3ncsc3c2)n1 [Example 22] | 10 to 100
CC(=O)c1cccc(NC(=O)c2cc(-c3ccc4ncsc4c3)n(-c3cccc(C)n3)n2)c1 [Example 23, 5-(benzo[d]thiazol-6-yl)-N-(3-acetylphenyl)-1-(6-methylpyridin-2-yl)-1H-pyrazole-3-carboxyamide] | ~10
CCOC(=O)c1cccc(NC(=O)c2cc(-c3ccc4ncsc4c3)n(-c3cccc(C)n3)n2)c1 [Example 24, ethyl 3-(5-(benzo[d]thiazol-6-yl)-1-(6-methylpyridin-2-yl)-1H-pyrazole-3-carboxyamido)benzoate] | ~100
CNC(=O)c1ccc(NC(=O)c2cc(-c3ccc4ncsc4c3)n(-c3cccc(C)n3)n2)cc1 [Example 25, 5-(benzo[d]thiazol-6-yl)-N-(4-(methylcarbamoyl)phenyl)-1-(6-methylpyridin-2-yl)-1H-pyrazole-3-carboxyamide] | < 10
CC(=O)Nc1ccc(NC(=O)c2cc(-c3ccc4ncsc4c3)n(-c3cccc(C)n3)n2)cc1 [Example 26, 5-(benzo[d]thiazol-6-yl)-N-(4-acetamidophenyl)-1-(6-methylpyridin-2-yl)-1H-pyrazole-3-carboxyamide] | 10 to 100
Cc1cccc(-n2nc(C(=O)Nc3ccccc3F)cc2-c2ccc3ncsc3c2)n1 [Example 27, 5-(benzo[d]thiazol-6-yl)-N-(2-fluorophenyl)-1-(6-methylpyridin-2-yl)-1H-pyrazole-3-carboxyamide] | 6.2
Cc1cccc(-n2nc(C(=O)Nc3cccc(F)c3)cc2-c2ccc3ncsc3c2)n1 [Example 28, 5-(benzo[d]thiazol-6-yl)-N-(3-fluorophenyl)-1-(6-methylpyridin-2-yl)-1H-pyrazole-3-carboxyamide] | 4.5
